Source: ChEMBL document CHEMBL5543136, “Discovery of Novel Heterotricyclic Compounds as DNA-Dependent Protein Kinase (DNA-PK) Inhibitors with Enhanced Chemosensitivity, Oral Bioavailability, and the Ability to Potentiate Cancer Immunotherapy” (J Med Chem, 2024)
Active and inactive are the calls of the source. The rule behind the calls is not given here.

Experiments:
[1] = Toxicity in C57BL/6 mouse implanted with mouse B16-F10 cells assessed as effect on body weight at 10 mg/kg, ip administered once daily for 13 days; format: organism-based; conditions: in vivo, 312 h, time 13 day
[2] = Toxicity in BALB/c mouse implanted with mouse CT26 cells assessed as death at 10 mg/kg, ip QD co-administered with doxorubicin for 21 days; format: organism-based; conditions: in vivo, 504 h, time 21 day
[3] = AUC (0 to infinity) in male Sprague-Dawley rat at 10 mg/kg, po measured after 48 hrs by LC-MS/MS analysis; format: ADME, organism-based; conditions: in vivo
[4] = Selectivity ratio of IC50 for antiproliferative activity against mouse B16-F10 cells to IC50 for synergistic antiproliferative activity against mouse B16-F10 cells in presence of doxorubicin; format: functional
[5] = Apparent volume of distribution in male Sprague-Dawley rat at 10 mg/kg, po measured after 48 hrs by LC-MS/MS analysis; format: ADME, organism-based; conditions: in vivo
B16-F10 [6] = assay: Immunomodulatory activity in mouse B16-F10 cells implanted in C57BL/6 mouse assessed as percentage of CD3 positive CD8 positive cells in tumor at 10 mg/kg, ip administered once daily for 13 days by flow cytometric analysis (reference value: 0.99%); format: functional; conditions: time 13 day
[7] = Selectivity ratio of IC50 for antiproliferative activity against human Jurkat cells to IC50 for synergistic antiproliferative activity against human Jurkat cells in presence of doxorubicin; format: functional
[8] = Half-life in male Sprague-Dawley rat at 10 mg/kg, po measured after 48 hrs by LC-MS/MS analysis; format: ADME, organism-based; conditions: in vivo
Jurkat [9] = assay: Inhibition of DNA damage repair in human Jurkat cells assessed as reduction in gammaH2AX expression level by Western blot analysis; format: functional, cell-based; conditions: dose 0.1-5 µM
HepG2 = assay: Inhibition of DNA damage repair in human HepG2 cells assessed as reduction in gammaH2AX expression level by Western blot analysis; format: functional, cell-based; conditions: dose 10-40 µM
CT26 [10] = assay: Antitumor activity against mouse CT26 cells implanted in BALB/c mouse assessed as reduction in tumor weight at 10 mg/kg, ip administered once daily for 21 days relative to control; format: functional; set-up: scale not given: the % may be the effect or the level left; conditions: time 21 day
B16-F10 [11] = assay: Antitumor activity against mouse B16-F10 cells implanted in C57BL/6 mouse assessed as tumor growth inhibition at 10 mg/kg, ip administered once daily for 13 days relative to control; format: functional; conditions: B16-F10, 312 h, time 13 day, read-out: TGI
B16-F10 [12] = assay: Immunomodulatory activity in mouse B16-F10 cells implanted in C57BL/6 mouse assessed as percentage of CD3 positive CD8 positive cells in tumor at 10 mg/kg, ip QD co-administered with SWS1 for 13 days by flow cytometric analysis (reference value: 0.99%); format: functional; conditions: time 13 day
B16-F10 [13] = assay: Immunomodulatory activity in mouse B16-F10 cells implanted in C57BL/6 mouse assessed as percentage of CD3 positive CD4 positive cells in tumor at 10 mg/kg, ip QD co-administered with PD-L1 antibody for 13 days by flow cytometric analysis (reference value: 0.86%); format: functional; conditions: time 13 day
B16-F10 [14] = assay: Antitumor activity against mouse B16-F10 cells implanted in C57BL/6 mouse assessed as tumor growth inhibition at 10 mg/kg, ip QD co-administered with SWS1 for 13 days relative to control; format: functional; conditions: B16-F10, 312 h, time 13 day, read-out: TGI
[15] = AUC (0 to t) in male Sprague-Dawley rat at 10 mg/kg, po measured after 48 hrs by LC-MS/MS analysis; format: ADME, organism-based; conditions: in vivo
[16] = Toxicity in C57BL/6 mouse implanted with mouse B16-F10 cells assessed as effect on body weight at 10 mg/kg, ip QD co-administered with PD-L1 antibody for 13 days; format: organism-based; conditions: in vivo, 312 h, time 13 day
CT26 [17] = assay: Antiproliferative activity against mouse CT26 cells assessed as reduction in cell viability incubated for 48 hrs by CCK-8 assay; format: functional, cell-based; conditions: CT26, 48 h
B16-F10 [18] = assay: Antiproliferative activity against mouse B16-F10 cells assessed as reduction in cell viability incubated for 48 hrs by CCK-8 assay; format: functional, cell-based; conditions: B16-F10, 48 h
[19] = Toxicity in C57BL/6 mouse implanted with mouse B16-F10 cells assessed as change in spleen histopathology at 10 mg/kg, ip administered once daily for 13 days by H&E staining based analysis; format: organism-based; conditions: in vivo, 312 h, time 13 day
CT26 [20] = assay: Synergistic antiproliferative activity against mouse CT26 cells assessed as reduction in cell viability incubated for 48 hrs in presence of doxorubicin by CCK-8 assay; format: functional, cell-based; conditions: CT26, 48 h
[21] = AUC (0 to infinity) in male Sprague-Dawley rat at 2 mg/kg, iv measured after 48 hrs by LC-MS/MS analysis; format: ADME, organism-based; conditions: in vivo
B16-F10 [22] = assay: Synergistic antiproliferative activity against mouse B16-F10 cells assessed as reduction in cell viability incubated for 48 hrs in presence of doxorubicin by CCK-8 assay; format: functional, cell-based; conditions: B16-F10, 48 h
[23] = Clearance in male Sprague-Dawley rat at 10 mg/kg, po measured after 48 hrs by LC-MS/MS analysis; format: ADME, organism-based; conditions: in vivo
[24] = Clearance in male Sprague-Dawley rat at 2 mg/kg, iv measured after 48 hrs by LC-MS/MS analysis; format: ADME, organism-based; conditions: in vivo
Jurkat [25] = assay: Synergistic antiproliferative activity against human Jurkat cells assessed as reduction in cell viability incubated for 48 hrs in presence of doxorubicin by CCK-8 assay; format: functional, cell-based
CT26 [26] = assay: Antitumor activity against mouse CT26 cells implanted in BALB/c mouse assessed as reduction in tumor volume by measuring tumor growth inhibition at 10 mg/kg, ip QD co-administered with doxorubicin for 21 days relative to control; format: functional; conditions: CT26, 504 h, time 21 day, read-out: TGI
[27] = Tmax in male Sprague-Dawley rat at 10 mg/kg, po measured after 48 hrs by LC-MS/MS analysis; format: ADME, organism-based; conditions: in vivo
[28] = Toxicity in BALB/c mouse implanted with mouse CT26 cells assessed as weight loss at 10 mg/kg, ip QD co-administered with doxorubicin for 21 days; format: organism-based; conditions: in vivo, 504 h, time 21 day
[29] = Toxicity in C57BL/6 mouse implanted with mouse B16-F10 cells assessed as change in lung histopathology at 10 mg/kg, ip administered once daily for 13 days by H&E staining based analysis; format: organism-based; conditions: in vivo, 312 h, time 13 day
[30] = Half-life in male Sprague-Dawley rat at 2 mg/kg, iv measured after 48 hrs by LC-MS/MS analysis; format: ADME, organism-based; conditions: in vivo
Jurkat [31] = assay: Induction of cell cycle arrest in human Jurkat cells assessed as decrease in S phase cells at 1 uM incubated for 24 hrs in presence of doxorubicin by PI staining based flow cytometric analysis; format: functional
[32] = Toxicity in C57BL/6 mouse implanted with mouse B16-F10 cells assessed as effect on body weight at 10 mg/kg, ip QD co-administered with SWS1 for 13 days; format: organism-based; conditions: in vivo, 312 h, time 13 day
[33] = Cmax in male Sprague-Dawley rat at 10 mg/kg, po measured after 48 hrs by LC-MS/MS analysis; format: ADME, organism-based; conditions: in vivo
B16-F10 [34] = assay: Antitumor activity against mouse B16-F10 cells implanted in C57BL/6 mouse assessed as tumor growth inhibition at 10 mg/kg, ip QD co-administered with PD-L1 antibody for 13 days relative to control; format: functional; conditions: B16-F10, 312 h, time 13 day, read-out: TGI

SMILES: Cc1cc2cccnc2cc1Nc1ncc2c(n1)N(C1CCOCC1)Cc1nncn1-2
- Activity [1]: Non-Toxic
- Activity [2]: Non-Toxic
- AUC(0-inf) [3]: 962 ng·h/mL
- Ratio IC50 [4]: 2.1
- Vz [5]: 38.8 L/kg
- Activity (B16-F10 [6]): 1.12%
- Ratio IC50 [7]: 30
- half-life [8]: 2 h
- inhibition (Jurkat [9]): Dose-Dependent Effect
- inhibition (HepG2): Dose-Dependent Effect
- Activity (CT26 [10]): 30.8%
- inhibition in vivo at 10 mg/kg (B16-F10 [11]): 35.9%
- Activity (B16-F10 [12]): 5.17%
- Activity (B16-F10 [13]): 4.06%
- inhibition in vivo at 10 mg/kg (B16-F10 [14]): 63.2%
- AUC(0-t) at 48 h [15]: 950 ng·h/mL
- Activity [16]: Non-Toxic
- IC50 (CT26 [17]): 4.1 µM
- IC50 (B16-F10 [18]): 10.3 µM
- Activity [19]: Non-Toxic
- IC50 (CT26 [20]): 9.7 µM
- AUC(0-inf) [21]: 605 ng·h/mL
- IC50 (B16-F10 [22]): 4.9 µM
- CL/F [23]: 210 mL/min/kg
- clearance [24]: 55 mL/min/kg
- IC50 (Jurkat [25]): 0.02 µM
- inhibition in vivo at 10 mg/kg (CT26 [26]): 59.5%
- Tmax [27]: 1.4 h
- Activity [28]: Non-Toxic
- Activity [29]: Non-Toxic
- half-life [30]: 1 h
- Activity (Jurkat [31]): Active
- Activity [32]: Non-Toxic
- Cmax [33]: 324 ng/mL
- inhibition in vivo at 10 mg/kg (B16-F10 [34]): 60.5%
